Results as given in US20260364175A1, “COMPOSITIONS FOR DRUG ADMINISTRATION” (Aegis Therapeutics, LLC, priority 2018, published 2026).
Where two headings read alike, the source gives them in different places.

Assays:
blood glucose = assay: Ocular administration of insulin plus absorption enhancer, blood glucose in anesthetized rats; type: in vivo, rat (male Sprague-Dawley); settings: for Blood Glucose: insulin eye drops + 0.50%
[1] = Oral phenylephrine tablet bioavailability in a canine model; type: in vivo, dog; settings: compressed tablets
Description: In a canine model, subjects were dosed orally with various phenylephrine (PE) tablet formulations, and blood samples were taken to determine the rate of parent phenyl ethyl phenylephrine absorption. Blood levels of parent phenylephrine were measured. Three subject groups were created with each alkylsaccharide test group containing five subjects in each test group. All subject groups received 10 mg of phenylephrine as a single tablet. Each subject was in the fasting state for overnight and two hours post dose. Blood samples were taken at pre-dose, 5, 10, 15, 30, 45 min., 1, 2, and 3 hours.
Comparator was the standard 30 mg (total weight including excipients) phenylephrine tablet was no absorption enhancer. Group number 2 tablets contain the alkylsaccharide designated A3, which is n-dodecyl-beta-D-maltoside in the amounts of 2.5 mg, 5 mg, and 7.5 mg, respectively. Group number three tablets contain the alkylsaccharide designated B3, which is sucrose monododecanoate, in the amounts of 5 mg, 10 mg, and 20 mg, respectively.

[2] = rat, in vivo
Description: Each set of drug solutions is administered to six groups of eight rats each by 20 uL instillation to a single nare of each animal. […] After the last blood sample is collected each animal is euthanized with CO2. […] Plasma samples are stored at −70 °C until analyzed. […] The concentration vs time data are plotted to determine the Cmax at each alkylsaccharide concentration and the ratio of Cmax with and without alkylsaccharide present is calculated and recorded as shown in Table XIX.

[3] = tested on: Escherichia coli (ATCC No. 8739); assay: Antibacterial activity, log reduction of cfu; type: cell-based; settings: Escherichia coli
From the text: (§1) The viable microorganisms used in the invention were not more than five passages removed from the original ATCC culture. As described herein, one passage is defined as the transfer of organisms from an established culture to fresh medium and all transfers are counted.
(§2) Cultures received from the ATCC are resuscitated according to the directions provided by the ATTC. Cells grown in broth were pelleted by centrifugation, resuspended in 1/20th the volume of fresh maintenance broth, and combined with an equal volume of 20% (v/v in water) sterile glycerol. Cells grown on agar were scraped from the surface into the maintenance broth also containing 10% glycerol broth. Small aliquots of the suspension were dispensed into sterile vials and the vials were stored in liquid nitrogen or in a mechanical freezer at a temperature no higher than about −50 °C. When a fresh seed-stock vial was required, it was removed and used to inoculate a series of working stock cultures. These working stock cultures were then used periodically (each day in the case of bacteria and yeast) to start the inoculum culture.
(§3) The culture conditions for the inoculum culture is substantially as described in Table IV. For example, suitable media can include but is not limited to, Soybean-Casein Digest or Sabouraud Dextrose Agar Medium. […]
(§4) The suspension should be refrigerated if it is not used within 2 hours. To confirm the initial cfu per mL estimate, the number of cfu per mL in each suspension was determined using the conditions of media and microbial recovery incubation times listed in Table IV (e.g., from about 3 to about 7 days). This value serves to calibrate the size of inoculum used in the test. The bacterial and yeast suspensions were used within 24 hours of harvest; whereas the fungal preparation can be stored under refrigeration for up to 7 days.
(§5) To determine which alkylglycoside formulations have antibacterial activity, the formulations were prepared in phosphate buffered saline (PBS) at pH 7. As a source of nutrition, either 1.5 mg/mL bovine serum albumin (BSA; see Tables V and VI) or 1 mg/mL of PYY was added (see Table VII) to the medium. BSA (CAS Number: 9048-46-8) was obtained from Sigma-Aldrich, St. Louis, MO, USA, n-dodecyl-4-O-α-D-glucopyranosyl-β-D-glucopyranoside and n-tetradecyl-4-O-α-D-glucopyranosyl-β-D-glucopyranoside were obtained from Anatrace Inc., Maumee, OH, USA, and PYY was obtained from Bachem California Inc., Torrance, CA, USA.
(§6) Antibacterial activity of the alkylglycosides were conducted in four sterile, capped bacteriological containers of suitable size into which a sufficient volume of alkylglycoside solution had been transferred. Each container was inoculated with one of the prepared and standardized inoculums and mixed. The volume of the suspension inoculum was between about 0.5% and about 1.0% of the volume of the alkylglycoside solution. […]. To determine the level of inhibition of growth, or reduction of growth based on a logarithmic scale, the initial concentration of viable microorganisms in each test preparation was estimated based on the concentration of microorganisms in each of the standardized inoculum as determined by the plate-count method. The inoculated containers were then incubated at about 22.5 °C±2.5. The growth or non-growth of the microorganisms in each culture/container were again determined at day 14 and day 28. The number of cfu present in each calculation was determined by the plate-count procedure standard in the art for the applicable intervals. The change in the orders of magnitude of bacterium and/or fungi was then determined by subtracting the first calculated log 10 values of the concentrations of cfu per mL present at the start or beginning (e.g., day 0), from the log 10 values of the concentration of cfu per mL for each microorganism at the applicable test intervals (e.g., day 14 and day 28; see Tables V, VI and VII).

[4] = tested on: Staphylococcus aureus (ATCC No. 6538); assay: Antibacterial activity, log reduction of cfu; type: cell-based
From the text: as §1, §2, §3, §4, §5, §6

[5] = tested on: Candida albicans (ATCC No. 10231); assay: Antimicrobial activity, log reduction of cfu; type: cell-based
From the text: as §1, §2, §3, §4, §5, §6

[6] = tested on: Aspergillus niger (ATCC No. 16404); assay: Antimicrobial activity, log reduction of cfu; type: cell-based; settings: for log reduction at […]: Aspergillus niger
From the text: as §1, §2, §3, §4, §5, §6

Compound: CCCCCCCCCCCCO[C@@H]1O[C@H](CO)[C@@H](O[C@H]2O[C@H](CO)[C@@H](O)[C@H](O)[C@H]2O)[C@H](O)[C@H]1O [Dodecyl Maltoside, n-Dodecyl-4-O-α-D-glucopyranosyl-β-D-glucopyranoside]
- effect on ocular insulin absorption (blood glucose; 0.5% and […] enhancer with insulin eye drops): equally effective
- effect on blood glucose / ocular insulin absorption (blood glucose; 0.5% enhancer with 0.2% insulin eye drops): maintained in the normoglycemic (80-120 mg/dl) or near-normoglycemic (120-160 mg/dl) range
- effect on ocular insulin absorption (alkyl chain length comparison) (blood glucose; alkylmaltosides with insulin eye drops): more effective
- Blood Glucose (blood glucose; 0 min): 379 ± 4 mg/dL
- Blood Glucose (blood glucose; 30 min): 297 ± 18 mg/dL
- Blood Glucose (blood glucose; 60 min): 188 ± 25 mg/dL
- Blood Glucose (blood glucose; 90 min): 141 ± 13 mg/dL
- Blood Glucose (blood glucose; 120 min): 123 ± 5 mg/dL
- Blood Glucose (blood glucose; -10 min (pre-dose)): 366 ± 12 mg/dL
- Blood Glucose (blood glucose; -20 min (pre-dose)): 375 ± 9 mg/dL
- increase of oral bioavailability of phenylephrine [1]: up to 56%
- Ratio Cmax(alkylsacch)/Cmax(No alkylsacch) [2]: ≥1.5
- log reduction at […] ([3]; ATCC8739, 336 h): ≥ 5
- log reduction at […] ([3]; ATCC8739, 672 h): ≥ 5
- log reduction at […] ([3]; ATCC8739, 672 h, read-out: log reduction of microorganisms): 0.1
- log reduction at […] ([4]; ATCC6538, 336 h): ≥ 4.9
- log reduction at […] ([4]; ATCC6538, 336 h, read-out: log reduction of microorganisms): ≥ 5.2
- log reduction at […] ([4]; ATCC6538, 672 h): ≥ 4.9
- log reduction at […] ([4]; ATCC6538, 672 h, read-out: log reduction of microorganisms): ≥ 5.2
- log reduction at […] ([5]; ATCC10231, 336 h): ≥ 4.5
- log reduction at […] ([5]; ATCC10231, 336 h, read-out: log reduction of microorganisms): 3
- log reduction at […] ([5]; ATCC10231, 672 h): ≥ 4.5
- log reduction at […] ([5]; ATCC10231, 672 h, read-out: log reduction of microorganisms): ≥ 5.3
- log reduction at […] ([6]; ATCC16404, 336 h): 4.7
- log reduction at […] ([6]; ATCC16404, 336 h, read-out: log reduction of microorganisms): 0.7
- log reduction at […] ([6]; ATCC16404, 672 h): 4.7
- growth from initial count ([6]; […], day 28): No growth
